Source: patent publication US11787837B2, “DCHBS-active esters of PEG compounds and their use” (Novo Nordisk A/S, priority 2016, dated 2023)
Values belong to the compound of their own block, whether it stands above or below them.

Test: Hydrolytic stability of activated side chains (hydrolysis at pH ~10.3, UPLC/HPLC area comparison at 210 nm)
Assay type: physicochemical
Conditions: for hydrolytic stability (in words): basic conditions, pH 10.3; for activated side chain still remaining: pH 10.3, hydrolysis times around 1100-1300 minutes
Experimental: 0.1 mmol of each activated side chain was dissolved in 1.0 mL NMP. To this solution was added 5 mL 1M NaHCO3 buffer solution adjusted to pH 10.0 with NaOH. Solution was stirred (pH ˜10.3) with aliquots being taken at different time intervals to determine to which extent the various activated side chains were hydrolysed.
The reaction mixtures were analysed by UPLC (Example no. 2 and E—UPLC_A_1) and HPLC (Example no. 1, B, C, and D—HPLC_A_1), and the percent of hydrolysis for the various side chains was estimated by area comparison in UV detection at 210 nm. In each example, the combined areas for released activation group (peak A) and non-activated side chain (peak B), was compared to area for activated side chain (peak C). The retention times (rt-A, rt-B, and rt-C for the various peaks (peak A, peak B, and peak C) for each side chain are summarised as follows; 1 (rt-A=1.94 min, rt-B=7.18-7.25 min, rt-C=7.48 min, HPLC_A_1), 2 (rt-A=0.48 min, rt-B=2.11 min, rt-C=2.29 min, UPLC_A_1), B (only rt-B detected at time point for analysis), C (rt-A=4.40 min, rt-B=7.25 min, HPLC_A_1), D (rt-A=4.01 min, rt-B=7.25 min, rt-C=10.16 min, HPLC_A_1), E (rt-A=2.08 min, rt-B=2.10 min, rt-C=2.10 min, UPLC_A_1).
The hydrolytic stability of the activated side chains of Examples 1 and 8B to 8D was tested. The hydrolysis protocol from Example 9 was used for the stability test.

[1] = Table 5, hydrolysis time 1380 min, method UPLC_A_4

Hydrolysis (%) at pH 10.3 (Table 5, hydrolysis time 1269 min, method UPLC_A_1): 88.1%
hydrolytic stability (in words): much more stable against hydrolysis
Hydrolysis (%) at pH 10.3 (hydrolysis time 1269 min, NMP + 1M NaHCO3 buffer, pH ~10.3, HPLC_A_1): 88.1%
activated side chain still remaining: approximately 12%
Structure (SMILES): O=C(O)CCCCCCCCCCCCCCCCCCC(=O)NC[C@H]1CC[C@H](C(=O)N[C@@H](CCC(=O)NCCOCCOCC(=O)NCCOCCOCC(=O)Oc2c(Cl)cc(Cl)cc2S(=O)(=O)O)C(=O)O)CC1 [Example 1, 20-[[4-[[(1S)-1-carboxy-4-[2-[2-[2-[2-[2-[2-(2,4-dichloro-6-sulfo-phenoxy)-2-oxo-ethoxy]ethoxy]ethylamino]-2-oxo-ethoxy]ethoxy]ethylamino]-4-oxo-butyl]carbamoyl]cyclohexyl]methylamino]-20-oxo-icosanoic acid]

hydrolytic stability (in words): much more stable against hydrolysis
Hydrolysis (%) at pH 10.3 (hydrolysis time 1070 min, NMP + 1M NaHCO3 buffer, pH ~10.3, UPLC_A_1): 88.1%
activated side chain still remaining: approximately 12%
Structure (SMILES): O=C(O)CCCCCCCCCCCCCCCCC(=O)N[C@@H](CCC(=O)NCCOCCOCC(=O)NCCOCCOCC(=O)Oc1c(Cl)cc(Cl)cc1S(=O)(=O)O)C(=O)O [Example 2, 18-[[(1S)-1-carboxy-4-[2-[2-[2-[2-[2-[2-(2,4-dichloro-6-sulfo-phenoxy)-2-oxo-ethoxy]ethoxy]ethylamino]-2-oxo-ethoxy]ethoxy]ethylamino]-4-oxo-butyl]amino]-18-oxo-octadecanoic acid]

Hydrolysis (%) at pH 10.3 [1]: 96%
Structure (SMILES): COCC(=O)Oc1c(Cl)cc(Cl)cc1S(=O)(=O)O [Example 8B, 3,5-dichloro-2-(2-methoxyacetyl)oxy-benzenesulfonic acid]

Hydrolysis (%) at pH 10.3 [1]: 60%
Structure (SMILES): CN(C)S(=O)(=O)c1cc(Cl)cc(Cl)c1OC(=O)COCCOCCNC(=O)COCCOCCNC(=O)CC[C@H](NC(=O)CCCCCCCCCCCCCCCCC(=O)O)C(=O)O [Example 8C]

Hydrolysis (%) at pH 10.3 (Table 5, hydrolysis time 1440 min, method UPLC_A_5): 67%
Structure (SMILES): C#CCOCCOCCOCCOCCC(=O)Oc1c(Cl)cc(Cl)cc1S(=O)(=O)O [Example 8D, 3,5-dichloro-2-[3-[2-[2-(2-prop-2-ynoxyethoxy)ethoxy]ethoxy]propanoyloxy]benzenesulfonic acid]

hydrolytic stability (in words): hydrolytically very unstable
Structure (SMILES): O=C(O)CCCCCCCCCCCCCCCCCCC(=O)NC[C@H]1CC[C@H](C(=O)N[C@@H](CCC(=O)NCCOCCOCC(=O)NCCOCCOCC(=O)ON2C(=O)CCC2=O)C(=O)O)CC1 [Example B, 20-[[4-[[(1S)-1-carboxy-4-[2-[2-[2-[2-[2-[2-(2,5-dioxopyrrolidin-1-yl)oxy-2-oxo-ethoxy]ethoxy]ethylamino]-2-oxo-ethoxy]ethoxy]ethylamino]-4-oxo-butyl]carbamoyl]cyclohexyl]methylamino]-20-oxo-icosanoic acid, reference compound]
Hydrolysis (%) at pH 10.3 (hydrolysis time 0 min (within a minute), NMP + 1M NaHCO3 buffer, pH ~10.3, HPLC_A_1): Quantitative (more than 99% of the side chain being hydrolysed)

Structure (SMILES): O=C(O)CCCCCCCCCCCCCCCCCCC(=O)NC[C@H]1CC[C@H](C(=O)N[C@@H](CCC(=O)NCCOCCOCC(=O)NCCOCCOCC(=O)Oc2ccc(Cl)cc2Cl)C(=O)O)CC1 [Example C, 20-[[4-[[(1S)-1-carboxy-4-[2-[2-[2-[2-[2-[2-(2,4-dichlorophenoxy)-2-oxo-ethoxy]ethoxy]ethylamino]-2-oxo-ethoxy]ethoxy]ethylamino]-4-oxo-butyl]carbamoyl]cyclohexyl]methylamino]-20-oxo-icosanoic acid, reference compound]
hydrolytic stability (in words): hydrolyse very fast and almost quantitatively
Hydrolysis (%) at pH 10.3 (hydrolysis time 0.16 min, NMP + 1M NaHCO3 buffer, pH ~10.3, HPLC_A_1): Quantitative (more than 99% of the side chain being hydrolysed)

Hydrolysis (%) at pH 10.3 (hydrolysis time 2 min, NMP + 1M NaHCO3 buffer, pH ~10.3, HPLC_A_1): 93.4%
Structure (SMILES): O=C(O)CCCCCCCCCCCCCCCCCCC(=O)NC[C@H]1CC[C@H](C(=O)N[C@@H](CCC(=O)NCCOCCOCC(=O)NCCOCCOCC(=O)Oc2c(Cl)cccc2Cl)C(=O)O)CC1 [Example D, 20-[[4-[[(1S)-1-carboxy-4-[2-[2-[2-[2-[2-[2-(2,6-dichlorophenoxy)-2-oxo-ethoxy]ethoxy]ethylamino]-2-oxo-ethoxy]ethoxy]ethylamino]-4-oxo-butyl]carbamoyl]cyclohexyl]methylamino]-20-oxo-icosanoic acid, reference compound]
hydrolytic stability (in words): hydrolyse very fast and almost quantitatively

Structure (SMILES): O=C(O)CCCCCCCCCCCCCCCCC(=O)N[C@@H](CCC(=O)NCCOCCOCC(=O)NCCOCCOCC(=O)Oc1c(Cl)cc(S(=O)(=O)O)cc1Cl)C(=O)O [Example E, 18-[[(1S)-1-carboxy-4-[2-[2-[2-[2-[2-[2-(2,6-dichloro-4-sulfo-phenoxy)-2-oxo-ethoxy]ethoxy]ethylamino]-2-oxo-ethoxy]ethoxy]ethylamino]-4-oxo-butyl]amino]-18-oxo-octadecanoic acid, reference compound]
Hydrolysis (%) at pH 10.3 (hydrolysis time 2.5 min, NMP + 1M NaHCO3 buffer, pH ~10.3, UPLC_A_1): Quantitative (more than 99% of the side chain being hydrolysed)
